Ends that are not written are not given here.
Key:
[1] = Stability in human blood plasma (TAM-labeled analogues); type: in vitro ADME; conditions: 10E-5 M, 37° C., two phase decay, N-terminally TAM-labeled analogues, read-out: HalfLife (Slow) (converted)
Source text: FIG. 3: Stability of peptides in plasma calculated with GraphPad Prism 5 (GraphPad Software) using two phase decay analysis for the determination of half-life (slow) (Test 1e). N-terminally 6-carboxytetramethylrhodamine-(TAM)-labeled analogues of Control: TAM[G^14]ADM(14-52); Example 18: TAM[K^14(PAM), (Dpr^16, E^21)lac]ADM(14-52); and Example 27: TAM[K^14(PAM), (Dpr^16, E^21)lac, Nα-Me-K^46]ADM(14-52).
The stability of the peptides was investigated using N-terminally 6-carboxytetramethylrhodamine-(TAM)-labeled analogues.
Fluorescently labeled ADM analogues were prepared by using solid phase peptide synthesis (SPPS) as described before (general method for peptide synthesis). Manual coupling of 6-carboxytetramethylrhodamine (TAM) to the N-terminus of the peptides was carried out with a 3-fold molar excess of the fluorescence dye, 2-(1H-benzotriazol-1-yl)-1,1,3,3-tetramethyluronium hexafluorophosphate (HBTU) and N,N-Diisopropylethylamine (DIPEA) in DMF under constant shaking for 24 h the resin as described recently (Bohme D., Beck-Sickinger A. G. ChemMedChem 2015, 10: 804-14). The identity of the peptides was confirmed by mass spectrometry with an MALDI-MS (UltraflexIII, Bruker) and an ESI-MS (HCT, Bruker). The observed masses were in correspondence to the calculated masses.
The peptides were dissolved in 1.5 ml of human blood plasma to a concentration of 10E-5 M and incubated at 37° C. under constant shaking. […] The samples were analyzed by RP-HPLC using a Varian VariTide RPC column (particle size 6 μm; pore size 200 Å; 250×4.6 mm) with linear gradients of 0.1% TFA in water and 0.08% TFA in ACN; fluorescence emission was detected at λ=573 nm. The percentage of intact peptide was determined by peak integration. […] The stability of the peptides was calculated with GraphPad Prism 5 (GraphPad Software) using a two phase exponential decay function for the determination of slow-decay phase half-lives (ln(2)/Kslow; Kslow: rate constant of slow part of exponential decay) (Table 3 and FIG. 3).

[2] = test system: mean arterial blood pressure; conditions: doses of ≦300 μg/kg body weight; reference WO 2013/064508 A1; cited from earlier work
[3] = only at −80° C. under argon atmosphere; cited from earlier work
[4] = test system: receptor in rat spleen membranes; conditions: cited from earlier work
guinea pig atria = conditions: cited from earlier work

CC[C@H](C)[C@H](NC(=O)[C@H](CCC(N)=O)NC(=O)[C@H](Cc1c[nH]cn1)NC(=O)[C@H](C)NC(=O)[C@H](CC(C)C)NC(=O)[C@H](CCCCN)NC(=O)[C@H](CCC(N)=O)NC(=O)[C@@H](NC(=O)[C@@H](NC(=O)[C@@H]1CSSC[C@H](NC(=O)CNC(=O)CNC(=O)c2ccc3c(c2)C2(OC3=O)c3ccc(N(C)C)cc3Oc3cc(N(C)C)ccc32)C(=O)N[C@@H](CCCNC(=N)N)C(=O)N[C@@H](Cc2ccccc2)C(=O)NCC(=O)N[C@@H]([C@@H](C)O)C(=O)N1)[C@@H](C)O)C(C)C)C(=O)N[C@@H](Cc1ccc(O)cc1)C(=O)N[C@@H](CCC(N)=O)C(=O)N[C@@H](Cc1ccccc1)C(=O)N[C@H](C(=O)N[C@@H](CC(=O)O)C(=O)N[C@@H](CCCCN)C(=O)N[C@@H](CC(=O)O)C(=O)N[C@@H](CCCCN)C(=O)N[C@@H](CC(=O)O)C(=O)N[C@@H](CC(N)=O)C(=O)N[C@H](C(=O)N[C@@H](C)C(=O)N1CCC[C@H]1C(=O)N[C@@H](CCCNC(=N)N)C(=O)N[C@@H](CO)C(=O)N[C@@H](CCCCN)C(=O)N[C@H](C(=O)N[C@@H](CO)C(=O)N1CCC[C@H]1C(=O)N[C@@H](CCC(N)=O)C(=O)NCC(=O)N[C@@H](Cc1ccc(O)cc1)C(N)=O)[C@@H](C)CC)C(C)C)[C@@H](C)O [TAM-control, TAM[G^14]ADM(14-52), reference compound]
half-life at 0.0001 M [1]: 540 min

adrenomedullin (human) [wt ADM]
duration of blood pressure reduction [2]: ≤ 4 h

amylin-(1-8) (KCNTATCA; ends and bridges not checked; cysteine pairing not given here; UniProt P10997 34-41, looked up, fragment) [native octapeptide amylin (1-8), literature]
time stable on storage [3]: 6 month

cyclo [Asp^2, Lys^7]-CGRP
decrease in affinity to the receptor [4]: 50%
biological activity (agonist function) (guinea pig atria): loss of agonist function
